Laboratory results: patent publication US20210347709A1, “RADIOFLUORINATED GPC3-BINDING PEPTIDES FOR PET IMAGING OF HEPATOCELLULAR CARCINOMA” (University of Southern California, priority 2020, published 2021)

Tests used:
[1] = In vitro stability in PBS and mouse serum; assay type: in vitro ADME; details: PBS at room temperature and mouse serum at 37° C., 2 h incubation, HPLC
Method: In Vitro Stability. The stability of Al[^18F]F-GP2076 or Al[^18F]F-GP2633 was evaluated in PBS and mouse serum. Briefly, 5.55 MBq of Al[^18F]F-GP2076 or Al[^18F]F-GP2633 was incubated with 0.5 ml of PBS at room temperature or mouse serum at 37° C. with gentle shaking. The stability test was carried out at 2 h after the incubation. For the PBS study, an aliquot of the solution was taken, and the radiochemical purity was determined by analytical HPLC. For the mouse serum study, after the addition of TFA, the mixture was passed through a 0.2-μm filter. An aliquot of the soluble fraction was taken, and the radiochemical purity was examined by analytical HPLC.

[2] = MicroPET/CT imaging and biodistribution, HepG2 tumor model; assay type: in vivo, nude mice; details: both sexes, BALB/c nude, mouse, iv, 5.55 MBq, total radioactivity; for tissue to tissue ratio at 1 h / tissue to tissue ratio at 0.5 h / tissue to tissue ratio at 2 h: HepG2 (GPC3+) tumor bearing mice; for tissue to tissue ratio at 1 h / tissue uptake at 1 h: 60 min; for tissue to tissue ratio at 0.5 h / tissue uptake at 0.5 h: 30 min; for tissue to tissue ratio at 2 h / tissue uptake at 2 h: 120 min; for tissue uptake at 0.5 h / tissue uptake at 1 h / tissue uptake at 2 h: HepG2 (GPC3+) tumor model, PET
Method: (§1) MicroPET/CT Imaging and Biodistribution. MicroPET/CT scans were carried out using a Siemens Inveon PET/CT scanner (Siemens, Germany). Tumor-bearing mice (n=3/group) were intravenously injected with 5.55 MBq of Al[^18F]F-GP2076 or Al[^18F]F-GP2633 under isoflurane anesthesia. A ten-minute static PET scan for each animal was acquired at 30, 60, and 120 min after the injection. 3-Dimensional ordered subset expectation maximization (3D-OSEM) algorithm was used for the PET reconstruction, and CT was applied for attenuation correction. Detailed procedures for the microPET/CT imaging and biodistribution are provided in ESM.
(§2) All animal experiments were conducted according to the guideline of the Nanfang Hospital Animal Ethics Committee at the Southern Medical University. Male or female BALB/c nude mice (about 4-6 weeks old) were obtained from the Laboratory Animal Center at Southern Medical University. The HepG2 and McA-RH7777 HCC xenografts were established by subcutaneous injection of 1×10^6 tumor cells into the left shoulder of nude mice. The animals were used for in vivo studies when the tumors reached a size of 0.5-1 cm in diameter (4-6 weeks after inoculation).
(§3) Inveon Research Workplace (IRW) 3.0 software (Siemens, Germany) was used to measure the regions of interest (ROIs) determined by superimposing the ellipsoid volume of interest (VOI) on the target tissues. The radioactivity concentrations were measured by the mean pixel intensity within each VOI and converted to dose/ml using a calibration constant. Assuming the tissue density of 1 g/ml, the ROI was then converted to dose per gram and normalized as the percent injected dose per gram (% ID/g). Tumor-to-nontarget uptake ratios, including tumor-to-muscle (T/M), tumor-to-liver (T/L), and tumor-to-kidneys (T/K) ratios, were calculated by dividing the radioactivity uptake in tumor by that in the corresponding normal tissue or organ.

[3] = MicroPET/CT imaging and biodistribution, McA-RH7777 tumor model; assay type: in vivo, nude mice; details: both sexes, BALB/c nude, mouse, iv, 5.55 MBq, total radioactivity; for tissue to tissue ratio at 0.5 h / tissue to tissue ratio at 1 h / tissue to tissue ratio at 2 h: McA-RH7777 (GPC3−) tumor bearing mice; for tissue to tissue ratio at 0.5 h / tissue uptake at 0.5 h: 30 min; for tissue to tissue ratio at 1 h / tissue uptake at 1 h: 60 min; for tissue uptake at 0.5 h / tissue uptake at 1 h / tissue uptake at 2 h: McA-RH7777 (GPC3−) tumor model, PET; for tissue uptake at 2 h / tissue to tissue ratio at 2 h: 120 min
Method: as §1, §2, §3

[4] = test system: GPC3-negative McA-RH7777 tumor; assay: as above; assay type: in vivo, nude mice; details: for Tumor-to-muscle (T/M) uptake ratio: McA-RH7777 (GPC3−) tumor bearing mice; for Kidneys uptake / Liver uptake / Tumor uptake: McA-RH7777 (GPC3−) tumor model, PET; for Tumor uptake: decay-corrected
Method: as §1, §2, §3

[5] = HepG2 tumor / liver, read-out: Tumor-to-liver (T/L) uptake ratio
[6] = HepG2 tumor / muscle, read-out: Tumor-to-muscle (T/M) uptake ratio
[7] = intestine, read-out: Intestinal uptake
[8] = decay-corrected, read-out: Tumor uptake
[9] = kidneys, read-out: Kidneys uptake
[10] = muscle, read-out: Muscle uptake
[11] = tumor / kidneys, read-out: Tumor-to-kidneys (T/K) uptake ratio
[12] = McA-RH7777 tumor / muscle, read-out: Tumor-to-muscle (T/M) uptake ratio
[13] = tumor / liver, read-out: Tumor-to-liver (T/L) uptake ratio

percentage of intact radiotracer (in vitro stability) [1]: > 98%
tissue to tissue ratio at 1 h ([2]; HepG2 tumor / kidneys, read-out: Tumor-to-kidneys (T/K) uptake ratio): 0.09 ± 0.01
tissue to tissue ratio at 0.5 h [2, 5]: 1.77 ± 0.2
tissue to tissue ratio at 1 h [2, 5]: 2 ± 0.18
tissue to tissue ratio at 2 h [2, 5]: 1.28 ± 0.25
tissue to tissue ratio at 0.5 h [2, 6]: 9.11 ± 0.79
tissue to tissue ratio at 1 h [2, 6]: 12.2 ± 0.62
tissue to tissue ratio at 2 h [2, 6]: 6.2 ± 1.8
tissue uptake at 0.5 h ([2]; bone, read-out: Bone uptake): 0.47 %ID/g
tissue uptake at 1 h ([2]; bone, read-out: Bone uptake): 0.43 %ID/g
tissue uptake at 2 h ([2]; bone, read-out: Bone uptake): 0.55 %ID/g
tissue uptake at 0.5 h ([2]; brain, read-out: Brain uptake): 0.1 %ID/g
tissue uptake at 1 h ([2]; brain, read-out: Brain uptake): 0.11 %ID/g
tissue uptake at 2 h ([2]; brain, read-out: Brain uptake): 0.22 %ID/g
tissue uptake at 0.5 h ([2]; heart, read-out: Heart uptake): 1.04 %ID/g
tissue uptake at 1 h ([2]; heart, read-out: Heart uptake): 0.91 %ID/g
tissue uptake at 2 h ([2]; heart, read-out: Heart uptake): 0.37 %ID/g
tissue uptake at 0.5 h [2, 7]: 1.09 %ID/g
tissue uptake at 1 h [2, 7]: 1.3 %ID/g
tissue uptake at 2 h [2, 7]: 0.46 %ID/g
tissue uptake at 0.5 h [2, 8]: 3.13 %ID/g
tissue uptake at 1 h [2, 8]: 3.37 %ID/g
tissue uptake at 2 h [2, 8]: 1.3 %ID/g
tissue uptake at 0.5 h [2, 9]: 39.4 %ID/g
tissue uptake at 1 h [2, 9]: 36.9 %ID/g
tissue uptake at 2 h [2, 9]: 29.3 %ID/g
tissue uptake at 0.5 h ([2]; liver, read-out: Liver uptake): 1.8 %ID/g
tissue uptake at 1 h ([2]; liver, read-out: Liver uptake): 1.7 %ID/g
tissue uptake at 2 h ([2]; liver, read-out: Liver uptake): 1.04 %ID/g
tissue uptake at 0.5 h ([2]; lung, read-out: Lung uptake): 0.69 %ID/g
tissue uptake at 1 h ([2]; lung, read-out: Lung uptake): 0.59 %ID/g
tissue uptake at 2 h ([2]; lung, read-out: Lung uptake): 0.34 %ID/g
tissue uptake at 0.5 h [2, 10]: 0.35 %ID/g
tissue uptake at 1 h [2, 10]: 0.28 %ID/g
tissue uptake at 2 h [2, 10]: 0.22 %ID/g
tissue to tissue ratio at 0.5 h [2, 11]: 0.08 ± 0.01
tissue to tissue ratio at 2 h [2, 11]: 0.04 ± 0.01
tissue to tissue ratio at 0.5 h [3, 12]: 3.87 ± 1.97
tissue to tissue ratio at 1 h [3, 12]: 6.2 ± 2.67
tissue uptake at 0.5 h ([3]; bone, read-out: Bone uptake): 1.04 %ID/g
tissue uptake at 1 h ([3]; bone, read-out: Bone uptake): 0.8 %ID/g
tissue uptake at 2 h ([3]; bone, read-out: Bone uptake): 0.56 %ID/g
tissue uptake at 0.5 h ([3]; brain, read-out: Brain uptake): 0.78 %ID/g
tissue uptake at 1 h ([3]; brain, read-out: Brain uptake): 0.31 %ID/g
tissue uptake at 2 h ([3]; brain, read-out: Brain uptake): 0.22 %ID/g
tissue uptake at 0.5 h ([3]; heart, read-out: Heart uptake): 1.4 %ID/g
tissue uptake at 1 h ([3]; heart, read-out: Heart uptake): 1 %ID/g
tissue uptake at 2 h ([3]; heart, read-out: Heart uptake): 0.47 %ID/g
tissue uptake at 0.5 h [3, 7]: 1.43 %ID/g
tissue uptake at 1 h [3, 7]: 1.03 %ID/g
tissue uptake at 2 h [3, 7]: 0.65 %ID/g
tissue uptake at 0.5 h [3, 8]: 1.75 %ID/g
tissue uptake at 1 h [3, 8]: 1.64 %ID/g
tissue uptake at 2 h [3, 8]: 0.66 %ID/g
tissue uptake at 0.5 h [3, 9]: 37.5 %ID/g
tissue uptake at 1 h [3, 9]: 35.4 %ID/g
tissue uptake at 2 h [3, 9]: 25.7 %ID/g
tissue uptake at 0.5 h ([3]; liver, read-out: Liver uptake): 1.52 %ID/g
tissue uptake at 1 h ([3]; liver, read-out: Liver uptake): 1.33 %ID/g
tissue uptake at 2 h ([3]; liver, read-out: Liver uptake): 0.88 %ID/g
tissue uptake at 0.5 h ([3]; lung, read-out: Lung uptake): 0.93 %ID/g
tissue uptake at 1 h ([3]; lung, read-out: Lung uptake): 0.74 %ID/g
tissue uptake at 2 h ([3]; lung, read-out: Lung uptake): 0.49 %ID/g
tissue uptake at 0.5 h [3, 10]: 0.53 %ID/g
tissue uptake at 1 h [3, 10]: 0.31 %ID/g
tissue uptake at 2 h [3, 10]: 0.2 %ID/g
tissue to tissue ratio at 0.5 h [3, 11]: 0.05 ± 0.004
tissue to tissue ratio at 1 h [3, 11]: 0.05 ± 0.002
tissue to tissue ratio at 2 h [3, 11]: 0.03 ± 0.004
tissue to tissue ratio at 0.5 h [3, 13]: 1.15 ± 0.09
tissue to tissue ratio at 1 h [3, 13]: 1.23 ± 0.05
tissue to tissue ratio at 2 h [3, 13]: 0.78 ± 0.16
tissue to tissue ratio at 2 h ([3]; tumor / muscle, read-out: Tumor-to-muscle (T/M) uptake ratio): 5.5 ± 3.65
Tumor-to-muscle (T/M) uptake ratio ([4]; 30 min): 3.87±1.97
Tumor-to-muscle (T/M) uptake ratio ([4]; 60 min): 6.20±2.67
Kidneys uptake ([4]; 30 min): 37.47 ± 2.57 % ID/g
Liver uptake ([4]; 30 min): 1.52 ± 0.11 % ID/g
Tumor uptake ([4]; 30 min): 1.75±0.05 % ID/g
Kidneys uptake ([4]; 60 min): 35.40 ± 0.92 % ID/g
Liver uptake ([4]; 60 min): 1.33 ± 0.06 % ID/g
Tumor uptake ([4]; 60 min): 1.64±0.03 % ID/g
Kidneys uptake ([4]; 120 min): 25.70 ± 3.35 % ID/g
Liver uptake ([4]; 120 min): 0.88 ± 0.20 % ID/g
Tumor uptake ([4]; 120 min): 0.66±0.06 % ID/g
SMILES: CC(C)C[C@H](NC(=O)[C@H](CCCNC(=N)N)NC(=O)[C@H](CC(N)=O)NC(=O)[C@H](CC(=O)O)NC(=O)[C@H](CCCNC(=N)N)NC(=O)CNC(=O)CNC(=O)CNC(=S)Nc1ccc(CC2CN(CC(=O)O)CCN(CC(=O)O)CCN2CC(=O)O)cc1)C(=O)N[C@@H](CC(N)=O)C(=O)N[C@H](C(=O)NCC(=O)NCC(=O)N[C@H](C(=O)N[C@@H](Cc1ccc(O)cc1)C(=O)N[C@@H](Cc1ccccc1)C(=O)N[C@@H](CC(C)C)C(=O)N[C@H](C(=O)N[C@H](C(=O)N[C@@H](CCCNC(=N)N)C(=O)N[C@@H](CCC(N)=O)C(=O)O)[C@@H](C)O)[C@@H](C)O)[C@@H](C)O)C(C)C (single isomer, unassigned) [Al[^18F]F-GP2633]
